Assay results from patent publication US9469645B2, “Compounds and compositions for the treatment of parasitic diseases” (Novartis AG, priority 2009, dated 2016).

What was measured:
3D7 P. falciparum strain = test: parasite proliferation assay in infected red blood cells (SYBR Green I); type: cell-based, Plasmodium falciparum; conditions: Plasmodium falciparum, 3D7, Erythrocyte, 3D7 strain; read-out: EC50 3D7 strain
Summary of the method: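 P. falciparum 3D7 grown in O+ human erythrocytes to 3–8% parasitemia and exposed to compounds. Proliferation read as the increase in parasite DNA. Detection used SYBR Green I in saponin/triton-X/EDTA lysis buffer, with overnight lysis at room temperature.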

W2 strain = test: parasite proliferation assay in infected red blood cells (SYBR Green I), W2 strain; type: cell-based; conditions: Erythrocyte
Text: Compounds of the invention can be assayed to measure their capacity to inhibit proliferation of parasitemia in infected red blood cells. The proliferation is quantified by the addition of SYBR Green I (INVITROGEN)® dye which has a high affinity for double stranded DNA.

Row | Structure (SMILES) | EC50 (3D7 P. falciparum strain) [nM] | EC50 (W2 strain) [nM]
1 | Cc1ccc(Nc2c(-c3ccc(F)cc3F)nc3n2CCNC3)cc1 [Compound 280] | 4710 | 4650
2 | CC(O)CN[C@@H](Cc1ccccc1)C(=O)N1CCn2c(nc(-c3ccc(F)cc3)c2Nc2ccc(Cl)c(F)c2)C1 (some centres unmarked) [Compound 281] | 820 | 596
3 | COCCN[C@@H](Cc1ccccc1)C(=O)N1CCn2c(nc(-c3ccc(F)cc3)c2Nc2ccc(Cl)c(F)c2)C1 [Compound 282] | 120 | 117
4 | Cc1c(Cc2ccccc2)nc2n1[C@H](CCc1ccccc1)CN(C(=O)c1cccnc1)[C@H]2Cc1ccccc1 [Compound 283] | 5520 | 3490
5 | Cc1ccc(Nc2c(-c3ccc(F)cc3)nc3n2CCN(C(=O)[C@H](N)CO)C3)cc1 [Compound 284] | 50 | 37
6 | Cc1ccc(Nc2c(-c3ccc(F)cc3)nc3n2CCN(C(=O)[C@H](N)[C@H](C)O)C3)cc1 [Compound 285] | 180 | 177
7 | Cc1ccc(Nc2c(-c3ccc(F)cc3)nc3n2CCN(C(=O)[C@@H](N)CCS(C)(=O)=O)C3)cc1 [Compound 286] | 1380 | 1500
8 | Cc1ccc(Nc2c(-c3ccc(F)cc3)nc3n2CCN(C(=O)[C@H](N)CC(=O)O)C3)cc1 [Compound 287] | 4360 | 7260
9 | Cc1ccc(Nc2c(-c3ccc(F)cc3)nc3n2CCN(C(=O)[C@@H](N)CS(C)(=O)=O)C3)cc1 [Compound 288] | 890 | 1390
10 | Cc1c(Cc2ccccc2)nc2n1[C@H](CCc1ccccc1)C(=O)N[C@@H]2Cc1ccccc1 [Compound 289, (5R,8R)-2,8-dibenzyl-3-methyl-5-phenethyl-7,8-dihydroimidazo[1,2-a]pyrazin-6(5H)-one] | 3880 | 747
11 | CCC(=O)N[C@H](C(=O)N1CCn2c(nc(-c3ccc(F)cc3)c2Nc2ccc(C)cc2)C1)c1ccccc1 [Compound 290] | 440 | 397
12 | CCCC(=O)N[C@H](C(=O)N1CCn2c(nc(-c3ccc(F)cc3)c2Nc2ccc(C)cc2)C1)c1ccccc1 [Compound 291] | 1200 | 567
13 | CN(c1ccc(Cl)c(F)c1)c1c(-c2ccc(F)cc2)nc2n1CCNC2 [Compound 292, N-(4-chloro-3-fluorophenyl)-2-(4-fluorophenyl)-N-methyl-5,6,7,8-tetrahydro imidazo[1,2-a]pyrazin-3-amine] | 150 | 156
14 | CN(c1ccc(Cl)c(F)c1)c1c(-c2ccc(F)cc2)nc2n1CCN(C(=O)C(C)(C)N)C2 [Compound 294] | 110 | 113
15 | CCCCN[C@H](C(=O)N1CCn2c(nc(-c3ccc(F)cc3)c2Nc2ccc(C)cc2)C1)c1ccccc1 [Compound 295] | 210 | 283
16 | CCCCCN[C@H](C(=O)N1CCn2c(nc(-c3ccc(F)cc3)c2Nc2ccc(C)cc2)C1)c1ccccc1 [Compound 296] | 280 | 424
17 | CC(C)(C)Nc1c(-c2ccc(F)cc2)nc2n1CCNC2 [Compound 297, N-tert-butyl-2-(4-fluorophenyl)-5,6,7,8-tetrahydroimidazo[1,2-a]pyrazin-3-amine] | 5290 | 8500
18 | Cc1ccc(Nc2c(-c3ccc(F)cc3)nc3n2CCN(C(=O)[C@@H](NC(=O)CCOCCOCCOCCOCCNC(=O)CCCCC2SCC4NC(=O)NC42)c2ccccc2)C3)cc1 (some centres unmarked) [Compound 298] | 610 | 193
19 | Cc1ccc(N2Cc3nc(-c4ccc(F)cc4)c(N)n3CC2=O)cc1 [Compound 299] | > 8740 | 9400
20 | Cc1ccc(Nc2c(-c3ccc(F)cc3)nc3n2CC(=O)NC3)cc1 [Compound 300] | 1110 | 1170
21 | COC[C@H](N)C(=O)N1CCn2c(nc(-c3ccc(F)cc3)c2Nc2ccc(Cl)c(F)c2)C1 [Compound 301] | 30 | 47
22 | O=C(Cc1ccncc1)N1CCn2c(nc(-c3ccc(F)cc3)c2Nc2ccc(Cl)c(F)c2)C1 [Compound 302] | 170 | 149
